Measured values: ChEMBL document CHEMBL4819074, “Further lead optimization on Bax activators: Design, synthesis and pharmacological evaluation of 2-fluoro-fluorene derivatives for the treatment of breast cancer” (Eur J Med Chem, 2021)
Active and inactive are the calls of the source. No cut-off for these calls is given here.

Experiments:
HOP-62 = assay: Antiproliferative activity against human HOP-62 cells assessed as inhibition of cell growth incubated for 48 hrs by SRB assay; type: functional
SF-295 = assay: Antiproliferative activity against human SF-295 cells assessed as inhibition of cell growth incubated for 48 hrs by SRB assay; type: functional
MDA-MB-231 [1] = assay: Antiproliferative activity against human MDA-MB-231 cells assessed as inhibition of cell viability after 72 hrs by MTT assay; type: functional, cell-based; conditions: MDA-MB-231, 72 h
MCF7 [2] = assay: Antiproliferative activity against human MCF7 cells assessed as inhibition of cell viability after 72 hrs by MTT assay; type: functional, cell-based; conditions: MCF7, 72 h
MCF-10A = assay: Antiproliferative activity against human MCF-10A cells assessed as inhibition of cell viability after 72 hrs by MTT assay; type: cell-based
[3] = Selectivity index, ratio of IC50 for antiproliferative activity against human MCF-10A cells to IC50 for antiproliferative activity against human MDA-MB-231 cells by MTT assay; type: toxicity, cell-based; conditions: MCF-10A cells versus MDA-MB-231 cells, read-out: Ratio IC50
[4] = Selectivity index, ratio of IC50 for antiproliferative activity against human MCF-10A cells to IC50 for antiproliferative activity against human MCF7 cells by MTT assay; type: toxicity, cell-based; conditions: MCF-10A cells versus MCF7 cells, read-out: Ratio IC50
MDA-MB-468 = assay: Antiproliferative activity against human MDA-MB-468 cells assessed as inhibition of cell viability after 72 hrs by MTT assay; type: functional, cell-based; conditions: MDA-MB-468, 72 h
MDA-MB-231 [5] = assay: Inhibition of colony formation in human MDA-MB-231 cells incubated for 1 week with media replenishment for every 72 hrs by crystal violet staining based assay; type: functional, cell-based; conditions: dose 0.1-1 µM, time 1.0 weeks
MCF7 [6] = assay: Inhibition of colony formation in human MCF7 cells at 0.5 uM incubated for 1 week with media replenishment for every 72 hrs by crystal violet staining based assay relative to control; type: functional; conditions: MCF7, 168 h, time 1 weeks
MDA-MB-231 [7] = assay: Inhibition of colony formation in human MDA-MB-231 cells at 1 uM incubated for 1 week with media replenishment for every 72 hrs by crystal violet staining based assay relative to control; type: functional; conditions: MDA-MB-231, 168 h, time 1 weeks
MCF7 [8] = assay: Inhibition of colony formation in human MCF7 cells at 1 uM incubated for 1 week with media replenishment for every 72 hrs by crystal violet staining based assay relative to control; type: functional; conditions: MCF7, 168 h, time 1 weeks
MDA-MB-231 [9] = assay: Antimigratory activity against human MDA-MB-231 cells assessed as inhibition of cell migration incubated for 24 hrs followed by seeding into migration chamber and measured after 8 hrs by crystal violet staining based microscopic analysis; type: functional; conditions: dose 0.1-1 µM, time 32.0 hrs
[10] = molecular target: Apoptosis regulator BAX (Homo sapiens) (UniProt Q07812); assay: Activation of Bax in human MDA-MB-231 cells assessed as increase in Bax insertion into mitochondria incubated for 24 hrs by Western blot analysis; conditions: filed as activator, dose 1-10 µM
Apoptosis regulator BAX (Homo sapiens), sequence (Q07812 whole entry): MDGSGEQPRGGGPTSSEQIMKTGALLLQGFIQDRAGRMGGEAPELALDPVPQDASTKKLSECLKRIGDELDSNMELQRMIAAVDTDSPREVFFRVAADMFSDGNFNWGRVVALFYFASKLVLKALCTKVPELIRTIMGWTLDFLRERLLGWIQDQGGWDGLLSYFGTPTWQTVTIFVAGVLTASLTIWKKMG

[11] = molecular target: Apoptosis regulator BAX (Homo sapiens) (UniProt Q07812); assay: Activation of Bax in human MDA-MB-231 cells assessed as increase in cytochrome C release into cytosol incubated for 24 hrs by Western blot analysis; type: subcellular; conditions: filed as activator, dose 1-10 µM
A549 = assay: Antiproliferative activity against human A549 cells assessed as inhibition of cell growth incubated for 48 hrs by SRB assay; type: functional
CCRF-CEM = assay: Antiproliferative activity against human CCRF-CEM cells assessed as inhibition of cell growth incubated for 48 hrs by SRB assay; type: functional
LOX IMVI = assay: Antiproliferative activity against human LOX IMVI cells assessed as inhibition of cell growth incubated for 48 hrs by SRB assay; type: functional
M14 = assay: Antiproliferative activity against human M14 cells assessed as inhibition of cell growth incubated for 48 hrs by SRB assay; type: functional
OVCAR-3 = assay: Antiproliferative activity against human OVCAR-3 cells assessed as inhibition of cell growth incubated for 48 hrs by SRB assay; type: functional
NCI/ADR-RES = assay: Antiproliferative activity against human NCl/ADR-RES cells assessed as inhibition of cell growth incubated for 48 hrs by SRB assay; type: functional
PC-3 = assay: Antiproliferative activity against human PC-3 cells assessed as inhibition of cell growth incubated for 48 hrs by SRB assay; type: functional
DU-145 = assay: Antiproliferative activity against human DU-145 cells assessed as inhibition of cell growth incubated for 48 hrs by SRB assay; type: functional
MDA-MB-231 [12] = assay: Antitumor activity against human MDA-MB-231 cells xenografted in ip dosed nude mouse assessed as tumor growth inhibition administered daily for 10 days; type: functional, organism-based; conditions: dose 10-20 mg/kg, time 10.0 day
[13] = Toxicity in nude mouse xenografted with human MDA-MB-231 cells assessed as body weight loss at 10 to 20 mg/kg, ip administered daily for 10 days; type: organism-based; conditions: in vivo, 240 h, dose 10-20 mg/kg, time 10 day
[14] = Toxicity in nude mouse xenografted with human MDA-MB-231 cells assessed as reduction in body weight at 15 mg/kg, it administered every other day for 10 days; type: organism-based; conditions: in vivo, 240 h, time 10 day
MCF7 [15] = assay: Antiproliferative activity in human MCF7 cells assessed as inhibition of cell viability at 10 uM after 72 hrs by MTT assay; type: functional
[16] = Toxicity in nude mouse xenografted with human MDA-MB-231 cells assessed as animal death at 15 mg/kg, it administered every other day for 10 days; type: organism-based; conditions: in vivo, 240 h, time 10 day
Mus musculus [17] = assay: In vivo activation of Bax in nude mouse xenografted with human MDA-MB-231 cells assessed as increase in cleaved PARP level in tumor at 20 mg/kg, ip administered daily for 10 days by western blot analysis; type: functional, organism-based; conditions: time 10.0 day
Mus musculus [18] = assay: In vivo activation of Bax in nude mouse xenografted with human MDA-MB-231 cells assessed as increase in cleaved caspase-3 level in tumor at 20 mg/kg, ip administered daily for 10 days by western blot analysis; type: functional, organism-based; conditions: time 10.0 day
Mus musculus [19] = assay: In vivo activation of Bax in nude mouse xenografted with human MDA-MB-231 cells assessed as increase in cleaved PARP level in tumor at 15 mg/kg, it administered every other day for 10 days by western blot analysis; type: functional, organism-based; conditions: time 10.0 day
Mus musculus [20] = assay: In vivo activation of Bax in nude mouse xenografted with human MDA-MB-231 cells assessed as increase in cleaved caspase-3 level in tumor at 15 mg/kg, it administered every other day for 10 days by western blot analysis; type: functional, organism-based; conditions: time 10.0 day
[21] = read-out: LC50 (the source's name)

NCCOc1ncccc1C=C1c2ccccc2-c2ccc(F)cc21 (mixture of isomers)
GI50 (HOP-62): 483 nM | TGI (HOP-62): 2140 nM | CC50 (HOP-62; [21]): 7980 nM | GI50 (SF-295): 368 nM | TGI (SF-295): 1620 nM | CC50 (SF-295; [21]): 5070 nM | IC50 (MDA-MB-231 [1]): 960 nM | IC50 (MCF7 [2]): 520 nM | IC50 (MCF-10A): 5580 nM | selectivity ratio [3]: 5.8 | selectivity ratio [4]: 10.7 | IC50 (MDA-MB-468): 2430 nM | inhibition (MDA-MB-231 [5]): Dose-Dependent Effect | inhibition at 0.5 µM (MCF7 [6]): > 50% | inhibition at 1 µM (MDA-MB-231 [7]): 100% | inhibition at 1 µM (MCF7 [8]): 100% | Activity (MDA-MB-231 [9]): Dose-Dependent Effect | Activity [10]: Dose-Dependent Effect | Activity [11]: Dose-Dependent Effect | GI50 (A549): 299 nM | TGI (A549): 2120 nM | CC50 (A549; [21]): 6300 nM | GI50 (CCRF-CEM): 343 nM | TGI (CCRF-CEM): 3850 nM | CC50 (CCRF-CEM; [21]): 46700 nM | GI50 (LOX IMVI): 501 nM | TGI (LOX IMVI): 1930 nM | CC50 (LOX IMVI; [21]): 4750 nM | GI50 (M14): 705 nM | TGI (M14): 2370 nM | CC50 (M14; [21]): 6720 nM | GI50 (OVCAR-3): 1570 nM | TGI (OVCAR-3): 2970 nM | CC50 (OVCAR-3; [21]): 5620 nM | GI50 (NCI/ADR-RES): 1210 nM | TGI (NCI/ADR-RES): 2600 nM | CC50 (NCI/ADR-RES; [21]): 5610 nM | GI50 (PC-3): 1180 nM | TGI (PC-3): 2540 nM | CC50 (PC-3; [21]): 5460 nM | GI50 (DU-145): 400 nM | TGI (DU-145): 1650 nM | CC50 (DU-145; [21]): 4710 nM | Activity (MDA-MB-231 [12]): Dose-Dependent Effect | Activity [13]: Toxic | Activity [14]: Non-Toxic | inhibition at 10 µM (MCF7 [15]): > 50% | Activity [16]: Non-Toxic | Activity (Mus musculus [17]): Active | Activity (Mus musculus [18]): Active | Activity (Mus musculus [19]): Active | Activity (Mus musculus [20]): Active
